# Data from patent US6855728B2, “Small-molecule modulators of hepatocyte growth factor / scatter factor activities” (North Shore-Long Island Jewish Health System, priority 2001, dated 2005).
# Columns and labels:
# VEGF-like activity = assay: Screen for VEGF-like activity in a standard assay; assay type: cell-based; settings: for VEGF-like activity: 2 microgram/ml compound
# Description: Compounds were screened for VEGF-like activity in a standard assay using 2 microgram/ml compound.
# [1] = system: MDCK cells exposed to adriamycin; assay: Anti-apoptotic activity assay (MTT viability, adriamycin-induced apoptosis); assay type: cell-based; settings: for protection from adriamycin-induced apoptosis: MDCK cells; for cell viability, substance alone: without adriamycin
# [2] = system: HGF/SF induced proliferation of HUVEC; assay: Endothelial cell (HUVEC) proliferation assay in the presence of exogenously-added HGF/SF; assay type: cell-based, human; settings: for inhibition at 2 µg/mL / inhibition at 6 µg/mL: Homo sapiens, inhibition of HUVEC proliferation; for inhibition at 2 µg/mL / Activity at 2 microgram/ml With HGF/SF (result in words): 2 microgram/ml; for inhibition at 2 µg/mL: read-out: Activity at 2 microgram/ml With HGF/SF: inhibition (blocked SF); for inhibition at 6 µg/mL: 6 microgram/ml, read-out: Activity at 6 microgram/ml With HGF/SF: inhibition (blocked SF); for Stimulation at 6-12 micrograms/ml With: stimulation of endothelial cell proliferation
# Description: To evaluate inhibitors of activity, compounds may be evaluated directly for anti-proliferative activities, such as the inhibition of cellular proliferation, inhibition of tumor growth, inhibition of scatter, and inhibition of gene expression, and may also be evaluated on their ability to inhibit activity when exposed to cells together with. In such instances, the scatter and/or proliferative activities induced by added will be inhibited by the attendant presence of an inhibitory compound of the invention.
# Cell proliferation assays Endothelial cells (HUVECs) were seeded in 48 well plates at a density of 10,000 to 20,000 cells per well in the normal growth medium (EGM-2-Clonetics) containing 2% fetal bovine serum, FGF, VEGF, IGF, ascorbic acid, EGF, GA, heparin and hydrocortisone. The cells were grown normally in the growth medium for 24 hr at 37 degrees C. and 5% CO2. The cells were then rinsed with RPMI-1% BSA and starved for 1-2 hrs. The stock solutions of all the compounds were made at a concentration of 10 mg/ml in DMSO and diluted in RPMI-1% BSA at a final concentrations of 1 to 12 microgram/ml. The cells were then washed and treated with the compounds and incubated for another 24 hr at 37 degrees C. Then ^3H thymidine (0.5 microgram/ml in RPMI-BSA) was added to the cells and incubated at 37 degrees C. for 4 to 5 hours. The unincorporated thymidine was removed by washing the cells four times with 1× PBS. Then the cells were lysed with 0.5M NaOH for 30 min and the radioactivity counted in the beta counter.
# [3] = system: Endothelial cells (HUVECs); assay: Endothelial cell (HUVEC) proliferation assay, 3H thymidine incorporation, compound without added growth factor; assay type: cell-based, human; settings: for Stimulation at 6-12 micrograms/ml Without HGF/SF: stimulation of endothelial cell proliferation
# In short: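 HUVECs grown 24 h in EGM-2, starved 1-2 h in RPMI-1% BSA, then exposed 24 h at 37 degrees C to compounds at 1 to 12 microgram/ml without added growth factors. Proliferation read as 3H thymidine incorporation over 4 to 5 h; human iliac artery endothelial cells also used similarly.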
# [4] = system: human endometrial cancer cells; assay: Effect on growth of tumor cells; assay type: cell-based; settings: 40 micrograms/ml
# Method: Effect on growth of tumor cells. The activity of the compounds herein to promote or inhibit the growth of tumor cells was evaluated using human endometrial cancer cells.
# [5] = system: mice following removal of the femoral artery; assay: In vivo blood flow improvement assay; settings: administered to mice for seven days following removal of the femoral artery
# c-Met receptor = c-Met receptor (Homo sapiens, UniProt P08581); assay: HUVEC proliferation assay with free c-Met receptor (specificity); assay type: cell-based
# Description: The following assays were used to evaluate the activity of the various compounds discussed herein. Certain of the compounds and groups thereof express-like activity, i.e., they induce scatter, cell proliferation, inhibit apoptosis, among other activities, and if acting through the c-Met receptor, agonize or stimulate c-Met receptor activity. The specificity for such compounds working through the c-Met receptor may be identified by performing the stimulation assay in the presence of free c-Met receptor. Reduction of a proliferative response in the presence of c-Met indicates such specificity.
# Cell proliferation assays Endothelial cells (HUVECs) were seeded in 48 well plates at a density of 10,000 to 20,000 cells per well in the normal growth medium (EGM-2-Clonetics) containing 2% fetal bovine serum, FGF, VEGF, IGF, ascorbic acid, EGF, GA, heparin and hydrocortisone. The cells were grown normally in the growth medium for 24 hr at 37 degrees C. and 5% CO2. The cells were then rinsed with RPMI-1% BSA and starved for 1-2 hrs. […] Then the cells were lysed with 0.5M NaOH for 30 min and the radioactivity counted in the beta counter.
# The specificity of the stimulation of endothelial cell growth by the compound as measured by ^3H-thymidine incorporation was tested by pre-incubation of cells with the HGF/SF receptor c-met. […]
# another cell line = assay: Anti-apoptotic activity assay in another cell line; assay type: cell-based
# Method: Anti-apoptotic Activity Assay. The ability of compounds of the present invention to protect cells-from apoptosis was performed using a MTT viability assay with MDCK cells exposed to adriamycin (15 micromolar) to induce apoptosis. HGF/SF was evaluated as a positive control.
# In another cell line, 90% protection was afforded by (4-chlorophenyl)[3-(2-(2-thienyl)vinyl)-1H-pyrazol-1-yl]methanone.
# MDCK cells = assay: Scatter assay; assay type: cell-based; settings: 6 microgram/ml; microscopic examination
# Method: Scatter Assay. A standard assay for scatter of MDCK cells was performed. Results were evaluated by microscopic examination.
# DU145 cells = assay: Clonogenic assay; assay type: cell-based; settings: clonogenic assay over 7 days
# Method: The effect of (4-(2-chloro-6-fluorobenzyl)-3,5-dimethyl-1H-pyrazole-1-yl)(3-(2,6-dichlorophenyl)-5-methylisoxazol-4-yl)methanone (FIG. 7) and 1-(4-chloro-3-methylphenyl)-3-(2,6-dichlorophenyl)-prop-2-en-1-one were evaluated in a clonogenic assay over 7 days.
# [6] = system: growth of blood vessels from subcutaneous tissue into Matrigel; assay: In vivo blood vessel ingrowth assay (Matrigel); settings: mice, Matrigel mixed with compound injected subcutaneously, 10 days
# Method: Angiogenesis was assayed as growth of blood vessels from subcutaneous tissue into a solid gel of basement membrane containing the test compound. Matrigel in liquid form (0.5 ml) was mixed with a compound of the invention, or basic fibroblast growth factor as a control, and injected into the abdominal subcutaneous tissue of mice as previously described (Kibbey, M. C., Grant, D. S. Auerbach, R. and Kleinman, H. K. [1992] Role of the SIKVAV site of laminin in promotion of angiogenesis and tumor growth: an in vivo Matrigel model. J. Natl. Can. Inst. 84, 1633-38). After 10 days, mice were sacrificed and the Matrigel plugs were removed, fixed, sectioned, stained and examined for ingrowth of blood vessels.
# [7] = 6-12 micrograms/ml, with HGF/SF
# [8] = 6-12 micrograms/ml, without HGF/SF
# c-Met receptor, sequence (P08581 25-1390): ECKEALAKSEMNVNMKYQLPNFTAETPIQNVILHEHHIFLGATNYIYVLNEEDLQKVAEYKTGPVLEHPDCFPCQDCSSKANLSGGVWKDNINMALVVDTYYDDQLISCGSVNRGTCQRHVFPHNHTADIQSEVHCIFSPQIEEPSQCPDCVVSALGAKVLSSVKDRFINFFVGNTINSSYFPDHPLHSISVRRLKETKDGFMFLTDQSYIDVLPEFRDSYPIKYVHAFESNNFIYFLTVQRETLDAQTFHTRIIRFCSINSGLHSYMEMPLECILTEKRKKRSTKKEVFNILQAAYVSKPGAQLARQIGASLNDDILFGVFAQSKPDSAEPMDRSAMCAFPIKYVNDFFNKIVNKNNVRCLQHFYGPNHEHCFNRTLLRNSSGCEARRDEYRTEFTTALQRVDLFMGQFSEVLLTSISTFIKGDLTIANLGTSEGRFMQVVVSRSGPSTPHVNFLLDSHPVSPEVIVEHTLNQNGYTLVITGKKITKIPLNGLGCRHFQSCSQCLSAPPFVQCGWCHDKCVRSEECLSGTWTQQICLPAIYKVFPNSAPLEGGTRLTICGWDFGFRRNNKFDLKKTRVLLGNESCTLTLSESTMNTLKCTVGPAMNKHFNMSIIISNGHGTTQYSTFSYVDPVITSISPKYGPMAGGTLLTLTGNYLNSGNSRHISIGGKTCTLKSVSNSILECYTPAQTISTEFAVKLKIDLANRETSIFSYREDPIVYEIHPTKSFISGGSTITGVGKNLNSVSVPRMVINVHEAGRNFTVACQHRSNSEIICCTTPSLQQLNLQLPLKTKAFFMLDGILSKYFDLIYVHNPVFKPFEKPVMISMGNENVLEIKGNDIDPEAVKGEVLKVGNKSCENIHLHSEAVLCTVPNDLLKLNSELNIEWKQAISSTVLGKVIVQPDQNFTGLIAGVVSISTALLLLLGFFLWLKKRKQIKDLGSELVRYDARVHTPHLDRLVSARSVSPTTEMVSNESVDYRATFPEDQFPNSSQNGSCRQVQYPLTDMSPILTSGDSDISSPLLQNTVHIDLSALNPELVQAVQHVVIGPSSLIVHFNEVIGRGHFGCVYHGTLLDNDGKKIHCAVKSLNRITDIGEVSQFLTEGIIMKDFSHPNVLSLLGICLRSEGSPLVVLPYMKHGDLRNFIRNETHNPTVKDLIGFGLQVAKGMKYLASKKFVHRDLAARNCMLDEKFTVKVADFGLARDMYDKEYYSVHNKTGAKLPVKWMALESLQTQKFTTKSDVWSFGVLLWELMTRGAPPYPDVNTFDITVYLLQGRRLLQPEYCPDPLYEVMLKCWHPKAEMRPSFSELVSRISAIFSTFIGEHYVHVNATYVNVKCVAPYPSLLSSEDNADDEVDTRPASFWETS
molecule,measurement,setting,value
VEGF,activity of VEGF in the VEGF-like activity assay,VEGF-like activity,1259±104 cpm
"COc1cccc2c1C(=O)c1c(O)c3c(c(O)c1C2=O)C[C@@](O)(C(=O)CO)C[C@@H]3O[C@H]1C[C@H](N)[C@H](O)[C@H](C)O1 [Adriamycin, reference compound]",cell viability,[1]; Adriamycin (15 µM),56 % of control
"O=C1c2ccccc2N(c2ccccc2)C(=O)C1(Br)Br [VC8, 3,3-dibromo-1-phenyl-1,2,3,4-tetrahydroquinoline-2,4-dione]",VEGF-like activity,VEGF-like activity,positive activity
"Cc1nn(C(=O)c2c(-c3c(Cl)cccc3Cl)noc2C)c(C)c1Cc1c(Cl)cccc1Cl [[4-(2,6-dichlorobenzyl)-3,5-dimethyl-1H-pyrazol-1-yl][3-(2,6-dichlorophenyl)-5-methylisoxazol-4-yl]methanone]",blockage of HGF/SF induced proliferation of HUVEC,[2]; 12 micrograms/ml,40-60%
same,effect on HGF/SF-mediated stimulation of HUVEC proliferation (FIG. 5),[2]; combination of HGF/SF and the compound,significant suppression
same,"effect on HUVEC proliferation, substance alone (FIG. 5)",[3],no effect
same,inhibition at 40 µg/mL,[4],40 to 50%
O=C(c1ccc(Cl)cc1)n1ccc(C=Cc2cccs2)n1 [(4-chlorophenyl)[3-(2-(2-thienyl)vinyl)-1H-pyrazol-1-yl]methanone],protection from adriamycin-induced apoptosis,[1],94%
same,"cell viability, substance alone",[1],unchanged
same,blood flow,[5],significant improvement in blood flow
same,stimulation of 3H-thymidine incorporation,"[3]; compound by itself, 6 microgram/ml",84%
same,inhibition of the compound's stimulation of 3H-thymidine incorporation in the presence of c-Met,c-Met receptor; compound 6 microgram/ml plus c-Met receptor 100 microgram/ml,75%
same,compound-induced EC proliferation blocked in the presence of C-met receptor,"c-Met receptor; compound 12 microgram/ml incubated with C-met receptor 5 microgram/ml for 30 min, then added to cells",40%
same,protection from adriamycin-induced apoptosis,another cell line,90%
same,scatter of MDCK cells,MDCK cells,caused scattering of MDCK cells similar to that seen with HGF/SF
"Cc1nn(C(=O)c2c(-c3c(Cl)cccc3Cl)noc2C)c(C)c1Cc1c(F)cccc1Cl [(4-(2-chloro-6-fluorobenzyl)-3,5-dimethyl-1H-pyrazole-1-yl)(3-(2,6-dichlorophenyl)-5-methylisoxazol-4-yl)methanone]",DU145 cell growth,DU145 cells,dose responsive inhibition
same,inhibition at 2 µg/mL,[2]; with HGF/SF,40 to 90%
same,inhibition at 6 µg/mL,[2]; with HGF/SF,50 to 100%
same,Activity at 2 microgram/ml Without HGF/SF (result in words),[3]; without HGF/SF,No effect
same,ingrowth of blood vessels into Matrigel plug,[6],significant stimulation of blood vessel ingrowth
"HGF/SF: hepatocyte growth factor/scatter factor, pleiotropic growth factor; evaluated as a positive control",protection from adriamycin-induced apoptosis,[1],94%
same,"cell viability, substance alone",[1],unchanged
same,"effect on HUVEC proliferation, substance alone (FIG. 5)",[3],increases the proliferation of HUVEC
"C(=C1c2ccccc2-c2ccccc2-c2ccccc21)c1ccc(-c2ccccc2)cc1 [9-biphenyl-4-ylmethylene-9H-tri-benzo(A,C,E)-cycloheptene]",Stimulation at 6-12 micrograms/ml With,[2]; [7],20-30% stimulation
same,Stimulation at 6-12 micrograms/ml Without HGF/SF,[3]; [8],30-40% stimulation
CC(=O)C1=C(C)C[C@H]2[C@@H]3CC=C4C[C@@H](O)CC[C@]4(C)[C@H]3CC[C@]12C [16 methyl-16 Dehydropregnenolone],Stimulation at 6-12 micrograms/ml With,[2]; [7],30% stimulation
same,Stimulation/Inhibition at 6-12 micrograms/ml Without HGF/SF (result in words),[3]; [8],No effect
c1ccc(-c2cc(-c3ccccc3)c(-c3ccccc3)c(-c3ccccc3)c2-c2ccccc2)cc1 [pentaphenylbenzene],Inhibition at 6-12 micrograms/ml With,"[2]; 6-12 micrograms/ml, with HGF/SF, inhibition of endothelial cell proliferation",50% inhibition
same,Stimulation at 6-12 micrograms/ml Without HGF/SF,[3]; [8],two to three fold stimulation
"Cc1nn(C(=O)c2cccs2)c(C)c1Cc1c(F)cccc1Cl [(4-(2-chloro-6-fluorobenzyl)-3,5-dimethyl-1H-pyrazole-1-yl)(2-thienyl)methanone]",Activity at 2 microgram/ml With HGF/SF (result in words),[2]; with HGF/SF,No effect
same,inhibition at 6 µg/mL,[2]; with HGF/SF,61%
same,Activity at 2 microgram/ml Without HGF/SF (result in words),[3]; without HGF/SF,No effect
same,Activity at 6 microgram/ml Without HGF/SF (result in words),"[3]; 6 microgram/ml, without HGF/SF",No effect
"CN(C)c1nc(-c2ccccc2)nc(-c2ccc(Cl)cc2)c1C#N [VC14, 4-(4-chlorophenyl)-6-(dimethylamino)-2-phenyl-5-pyrimidinecarbonitrile]",VEGF-like activity,VEGF-like activity,positive activity
"Cc1nn(C(=O)C(C)(C)C)c(C)c1Cc1c(F)cccc1Cl [1-(4-(2-chloro-6-fluorobenzyl)-3,5-dimethyl-1H-pyrazole-1-yl)2,2-dimethylpropan-1-one]",inhibition at 2 µg/mL,[2]; with HGF/SF,25%
same,inhibition at 6 µg/mL,[2]; with HGF/SF,25%
same,Activity at 2 microgram/ml Without HGF/SF (result in words),[3]; without HGF/SF,No effect
same,Activity at 6 microgram/ml Without HGF/SF (result in words),"[3]; 6 microgram/ml, without HGF/SF",No effect
"Cc1onc(-c2c(Cl)cccc2Cl)c1C(=O)NN(C)C [N′4,N′4,5-trimethyl-3-(2,6-dichlorophenyl)isoxazole-4-carbohydrazide]",Activity at 2 microgram/ml With HGF/SF (result in words),[2]; with HGF/SF,No effect
same,inhibition at 6 µg/mL,[2]; with HGF/SF,40%
same,Activity at 2 microgram/ml Without HGF/SF (result in words),[3]; without HGF/SF,No effect
same,Activity at 6 microgram/ml Without HGF/SF (result in words),"[3]; 6 microgram/ml, without HGF/SF",No effect
